Like-named read-outs stand apart in the source and are kept apart here.
Assays:
Format in all cases: in vivo
[1] = system: Green Peach Aphid (GPA) (Myzus persicae); assay: Bioassay on green peach aphid (GPA), foliar spray on cabbage seedlings; conditions: 72 h, read-out: % Mortality GPA 200 ppm
Procedure: Certain molecules disclosed in this document were tested against GPA using procedures described in the following example. In the reporting of the results, the “GPA Rating Table” was used (See Table Section).
Cabbage seedlings grown in 3-inch pots, with 2-3 small (3-5 cm) true leaves, were used as test substrate. The seedlings were infested with 20-50 GPA (wingless adult and nymph stages) one day prior to chemical application. Four pots with individual seedlings were used for each treatment. Test compounds (2 mg) were dissolved in 2 mL of acetone/methanol (1:1) solvent, forming stock solutions of 1000 ppm test compound. The stock solutions were diluted 5× with 0.025% Tween 20 in H2O to obtain the solution at 200 ppm test compound. A hand-held aspirator-type sprayer was used for spraying a solution to both sides of […] leaves until runoff. Reference plants (solvent check) were sprayed with the diluent only containing 20% by volume of acetone/methanol (1:1) solvent. Treated plants were held in a holding room for three days at approximately 25° C. and ambient relative humidity (RH) prior to grading. Evaluation was conducted by counting the number of live aphids per plant under a microscope. Percent Control was measured by using Abbott's correction formula (W. S. Abbott, “A Method of Computing the Effectiveness of an Insecticide” J. Econ. Entomol. 18 (1925), pp. 265-267) as follows. Corrected % Control=100*(X−Y)/X • where • X=No. of live aphids on solvent check plants and • Y=No. of live aphids on treated plants

[2] = system: Beet Armyworm (BAW) (Spodoptera exigua); assay: Bioassay on beet armyworm (BAW), 128-well diet tray assay; conditions: 168 h, read-out: % Mortality BAW 50 μg/cm^2
Procedure: (§1) Certain molecules disclosed in this document were tested against BAW and CEW using procedures described in the following examples. In the reporting of the results, the “BAW & CEW Rating Table” was used (See Table Section).
Bioassays on BAW (Spodoptera exigua)
Bioassays on BAW were conducted using a 128-well diet tray assay. One to five second instar BAW larvae were placed in each well (3 mL) of the diet tray that had been previously filled with 1 mL of artificial diet to which 50 μg/cm^2 of the test compound (dissolved in 50 μL of 90:10 acetone-water mixture) had been applied (to each of eight wells) and then allowed to dry. Trays were covered with a clear self-adhesive cover, and held at 25° C., 14:10 light-dark for five to seven days. Percent mortality was recorded for the larvae in each well; activity in the eight wells was then averaged. The results are indicated in the table entitled “Table: Bio Results” (See Table Section).

[3] = system: Corn Earworm (CEW) (Helicoverpa zea); assay: Bioassay on corn earworm (CEW), 128-well diet tray assay; conditions: 168 h, read-out: % Mortality CEW 50 μg/cm^2
Procedure: as §1
Bioassays on CEW (Helicoverpa zea)
Bioassays on CEW were conducted using a 128-well diet tray assay. One to five second instar CEW larvae were placed in each well (3 mL) of the diet tray that had been previously filled with 1 mL of artificial diet to which 50 μg/cm^2 of the test compound (dissolved in 50 μL of 90:10 acetone-water mixture) had been applied (to each of eight wells) and then allowed to dry. Trays were covered with a clear self-adhesive cover, and held at 25° C., 14:10 light-dark for five to seven days. Percent mortality was recorded for the larvae in each well; activity in the eight wells was then averaged. The results are indicated in the table entitled “Table: Bio Results” (See Table Section).

[4] = 200 ppm foliar spray on cabbage seedlings, graded after three days, Abbott corrected % control
[5] = 50 μg/cm^2 on artificial diet, second instar larvae, 25° C., five to seven days, average of eight wells

SMILES | mortality at 200 ppm [1, 4] | mortality at 50 µg/cm2 [2, 5] | mortality at 50 µg/cm2 [3, 5] | mortality at 200 ppm ([1]; foliar) | mortality at 50 µg/cm2 [2] | mortality at 50 µg/cm2 [3]
CCc1cccc(CC)c1NC(=S)NC1CC1c1ccc(-c2ncn(-c3ccc(OC(F)(F)F)cc3)n2)cc1 (stereo not drawn) [Compound 6, 1-(2,6-Diethylphenyl)-3-(2-{4-[1-(4-trifluoromethoxyphenyl)-1H-[1,2,4]triazol-3-yl]phenyl}cyclopropyl)thiourea] | 0 to 80% | 50 to 100% | 50 to 100% |  |  | 
Cc1cc(Cl)ccc1NC(=S)NC1CC1c1ccc(-c2ncn(-c3ccc(OC(F)(F)F)cc3)n2)cc1 (stereo not drawn) [Compound 4, 1-(4-Chloro-2-methylphenyl)-3-(2-{4-[1-(4-trifluoromethoxyphenyl)-1H-[1,2,4]triazol-3-yl]phenyl}cyclopropyl)thiourea] | 0% | 50 to 100% | 50 to 100% |  |  | 
Cc1cc(F)ccc1OC(=O)NC1CC1c1ccc(-c2ncn(-c3ccc(OC(F)(F)F)cc3)n2)cc1 (stereo not drawn) [Compound 22, 4-Fluoro-2-methylphenyl 2-(4-(1-(4-(trifluoromethoxy)phenyl)-1H-1,2,4-triazol-3-yl)-phenyl)cyclopropylcarbamate] |  |  |  | 0% | 50 to 100% | 50 to 100%
CC(OC(=O)NC1CC1c1ccc(-c2ncn(-c3ccc(OC(F)(F)F)cc3)n2)cc1)c1ccccn1 (stereo not drawn) [Compound 20, 1-(Pyridin-2-yl)ethyl 2-(4-(1-(4-(trifluoromethoxy)phenyl)-1H-1,2,4-triazol-3-yl)phenyl)-cyclopropylcarbamate] |  |  |  | 0 to 80% | 50 to 100% | 50 to 100%
CC(C)(C)OC(=O)NC1CC1c1ccc(-c2ncn(-c3ccc(OC(F)(F)F)cc3)n2)cc1 (stereo not drawn) [Compound 17, tert-Butyl 2-(4-(1-(4-(trifluoromethoxy)phenyl)-1H-1,2,4-triazol-3-yl)phenyl)-cyclopropylcarbamate] | 0% | 50 to 100% | 50 to 100% |  |  | 
COc1cc(C)c(NC(=S)NC2CC2c2ccc(-c3ncn(-c4ccc(OC(F)(F)F)cc4)n3)cc2)c(C)n1 (stereo not drawn) [Compound 14, 1-(6-Methoxy-2,4-dimethylpyridin-3-yl)-3-(2-(4-(1-(4-(trifluoromethoxy)-phenyl)-1H-1,2,4-triazol-3-yl)phenyl)cyclopropyl)thiourea] | 0 to 80% | 50 to 100% | 50 to 100% |  |  | 
COc1ccc(NC(=S)NC2CC2c2ccc(-c3ncn(-c4ccc(OC(F)(F)F)cc4)n3)cc2)c(C(C)C)c1 (stereo not drawn) [Compound 13, 1-(2-Isopropyl-4-methoxyphenyl)-3-(2-(4-(1-(4-(trifluoromethoxy)phenyl)-1H-1,2,4-triazol-3-yl)phenyl)cyclopropyl)thiourea] | 0% | 50 to 100% | 50 to 100% |  |  | 
COc1ccc(NC(=S)NC2CC2c2ccc(-c3ncn(-c4ccc(OC(F)(F)F)cc4)n3)cc2)c(OC)c1 (stereo not drawn) [Compound 10, 1-(2,4-Dimethoxyphenyl)-3-(2-{4-[1-(4-trifluoromethoxyphenyl)-1H-[1,2,4]triazol-3-yl]phenyl}cyclopropyl)thiourea] | 0 to 80% | 50 to 100% | 50 to 100% |  |  | 
Cc1cc(C)c(NC(=O)NC2CC2c2ccc(-c3ncn(-c4ccc(OC(F)(F)F)cc4)n3)cc2)c(C)c1 (stereo not drawn) [Compound 30, 1-Mesityl-3-(2-(4-(1-(4-(trifluoromethoxy)phenyl)-1H-1,2,4-triazol-3-yl)phenyl)-cyclopropyl)urea] | 0 to 80% | 0% | 0% |  |  | 
O=C(NC1CC1c1ccc(-c2ncn(-c3ccc(OC(F)(F)F)cc3)n2)cc1)Oc1c(Cl)cccc1Cl (stereo not drawn) [Compound 28, 2,6-Dichlorophenyl 2-(4-(1-(4-(trifluoromethoxy)phenyl)-1H-1,2,4-triazol-3-yl)phenyl)-cyclopropylcarbamate] |  |  |  | 0 to 80% | 0% | 0%
O=C(NC1CC1c1ccc(-c2ncn(-c3ccc(OC(F)(F)F)cc3)n2)cc1)Oc1ccccc1C1CCCC1 (stereo not drawn) [Compound 23, 2-Cyclopentylphenyl 2-(4-(1-(4-(trifluoromethoxy)phenyl)-1H-1,2,4-triazol-3-yl)phenyl)-cyclopropylcarbamate] |  |  |  | 0 to 80% | 0% | 50 to 100%
Cc1cccc(C)c1NC(=S)NC1CC1c1ccc(-c2ncn(-c3ccc(OC(F)(F)F)cc3)n2)cc1 (stereo not drawn) [Compound 12, 1-(2,6-Dimethylphenyl)-3-(2-(4-(1-(4-(trifluoromethoxy)phenyl)-1H-1,2,4-triazol-3-yl)phenyl)cyclopropyl)thiourea] | 0 to 80% | 50 to 100% | 50 to 100% |  |  | 
FC(F)(F)Oc1ccc(-n2cnc(-c3ccc(C4CC4NC(=S)Nc4ccccc4Cl)cc3)n2)cc1 (stereo not drawn) [Compound 5, 1-(2-Chlorophenyl)-3-(2-{4-[1-(4-trifluoromethoxyphenyl)-1H-[1,2,4]triazol-3-yl]phenyl}cyclopropyl)thiourea] | 0% | 50 to 100% | 50 to 100% |  |  | 

— patent publication US9107410B2, “Pesticidal compositions and processes related thereto” (Dow AgroSciences LLC, priority 2011, dated 2015)
